Test results reported in patent US20240180948A1, “4'-HALOGEN CONTAINING NUCLEOTIDE AND NUCLEOSIDE THERAPEUTIC COMPOSITIONS AND USES RELATED THERETO” (priority 2018, published 2024).

What was measured:
[1] = Liver microsome stability, rat; conditions: male, Sprague-Dawley, liver microsomes, pH 7.4
Plasma stability, mouse = conditions: male, CD-1, mouse
[2] = Liver microsome stability, mouse; conditions: male, CD-1, mouse, liver microsomes, pH 7.4
Plasma stability, human = conditions: both
Plasma stability, rat = conditions: male, Sprague-Dawley
[3] = Liver microsome stability, human; conditions: both, liver microsomes, pH 7.4
[4] = Mouse plasma PK, single dose PO or IP; conditions: female, ICR (CD-1)

Row | SMILES | half-life at 1 μM [1] [min] | half-life at 1 μM (Plasma stability, mouse) [min] | half-life at 1 μM [2] [min] | half-life at 1 μM (Plasma stability, human) [min] | half-life at 1 μM (Plasma stability, rat) [min] | half-life at 1 μM [3] [min] | AUC(0-inf) ([4]; ip, 10 mg/kg) [µM·h] | half-life ([4]; ip, 10 mg/kg) [min] | AUC(0-inf) ([4]; po, 50 mg/kg) [µM·h] | bioavailability ([4]; po, 50 mg/kg) [%] | half-life ([4]; po, 50 mg/kg) [min] | AUC(0-inf) ([4]; po, 150 mg/kg) [µM·h] | bioavailability ([4]; po, 150 mg/kg) [%] | half-life ([4]; po, 150 mg/kg) [min] | AUC(0-inf) ([4]; po, 500 mg/kg) [µM·h] | bioavailability ([4]; po, 500 mg/kg) [%] | half-life ([4]; po, 500 mg/kg) [min]
1 | CC(C)[C@H](N)C(=O)OC[C@@]1(F)O[C@@H](n2ccc(=O)[nH]c2=O)[C@H](O)[C@@H]1O.Cl [EIDD-2971, [(1S)-1-[[(2S,3S,4R,5R)-5-(2,4-dioxopyrimidin-1-yl)-2-fluoro-3,4-dihydroxy-tetrahydrofuran-2-yl]methoxycarbonyl]-2-methyl-propyl]ammonium chloride] | 33 | 59 | 11 | 81 | 50 | 38 | – | – | – | – | – | – | – | – | – | – | –
2 | O=c1ccn([C@@H]2O[C@](F)(CO)[C@@H](O)[C@H]2O)c(=O)[nH]1 [EIDD-02749, 1-[(2R,3R,4S,5S)-5-fluoro-3,4-dihydroxy-5-(hydroxymethyl)tetrahydrofuran-2-yl]pyrimidine-2,4-dione] | 25 | 37 | 27 | 26 | 22 | 22 | 19.6 | 378 | 232 | 236 | 498 | 392 | 133 | 510 | 755 | 77 | 774
3 | CC(C)C(=O)OC[C@@]1(F)O[C@@H](n2ccc(=O)[nH]c2=O)[C@H](OC(=O)C(C)C)[C@@H]1OC(=O)C(C)C [EIDD-2954, [(2S,3S,4R,5R)-5-(2,4-dioxopyrimidin-1-yl)-2-fluoro-3,4-bis(2-methylpropanoyloxy)tetrahydrofuran-2-yl]methyl 2-methylpropanoate] | < 1 | 1 | < 1 | 2 | 1 | < 1 | – | – | – | – | – | – | – | – | – | – | –
4 | CC(C)C(=O)OC[C@@]1(F)OC(n2ccc(=O)[nH]c2=O)C(O)[C@@H]1O (stereo partly drawn) [EIDD-2947, [(2S,3S)-5-(2,4-dioxopyrimidin-1-yl)-2-fluoro-3,4-dihydroxy-tetrahydrofuran-2-yl]methyl 2-methylpropanoate] | 10 | 1 | 1 | 2 | 9 | – | – | – | – | – | – | – | – | – | – | – | –
